We go through two compounds from PubChem BioAssay (NCI).

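Interpolation was linear, between the two tested concentrations surrounding the appropriate level; five concentrations were tested over 48 hours in 96-well plates. Definition used: TGI = concentration required for complete inhibition of growth.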

This assay relates to P388 leukemia. The experiment in a line: NCI tumour cell line growth inhibition, 48 h.

On to `COC1=C2C[C@@H](C)C[C@@H](OC)[C@@H](O)[C@H](C)/C=C(\C)[C@@H](OC(N)=O)[C@H](OC)/C=C\C=C(/C)C(=O)NC(=CC1=O)C2=O`, for which the TGI came out at 0.48 µM.

The compound `OCC1OC(n2cnc3c2NC=NC[C@H]3O)CC1O` (some centres not stated) came in with a TGI of 500 µM.
